Results from patent US10314793B2, “Solubilized CoQ-10” (Soft Gel Technologies, Inc., priority 2003, dated 2019).

Test: Solubilization of CoQ-10 in solvent (monoterpenes; prior liquid delivery solvents)
Type: physicochemical
Conditions: without heating or with gentle warming; ambient temperatures
Source text: The present invention pertains to the surprising discovery that ubiquinone (CoQ-10) and related analogs thereof can be readily dissolved in varying concentrations in monoterpenes. Generally, until the present discovery, most CoQ-10 liquid delivery methods could solubilize only up to about 5% by weight of the CoQ-10 in the “solvent”. Typical solvents included various oils or the CoQ-10 was held in suspension. The present invention provides the ability to solubilize CoQ-10 in monoterpenes in concentrations of up to about 60% (weight to weight) without the need to aggressively heat the solution or with gentle warming. In particular, the solubilization of the CoQ-10 with monoterpenes can be accomplished at ambient temperatures.
Generally, until the present discovery, most CoQ-10 liquid delivery methods could solubilize only up at most about 10% by weight of the CoQ-10 in the solvent. Typical solvents included oils or the CoQ-10 was held in an aqueous suspension. Alternatively, the CoQ-10 was provided as a solid in a tablet or powder.
The present invention provides the ability to solubilize CoQ-10 and analogs thereof in monoterpenes, as defined herein, in concentrations of up to about 60% (weight to weight) without the need to heat the solution. In one aspect, the monoterpene solubilizes CoQ-10 from about 0.1 percent by weight to about 45 percent by weight. […]

COC1=C(OC)C(=O)C(C/C=C(\C)CC/C=C(\C)CC/C=C(\C)CC/C=C(\C)CC/C=C(\C)CC/C=C(\C)CC/C=C(\C)CC/C=C(\C)CC/C=C(\C)CCC=C(C)C)=C(C)C1=O [CoQ-10]
CoQ-10 solubilized in monoterpenes: up to 60 % (weight to weight)
